Laboratory results taken from patent publication US20070099941A1, “N-arylalkyl-thienopyrimidin-4-amines and analogs as activators of caspases and inducers of apoptosis and the use thereof” (Cytovia, Inc., priority 2005, published 2007).

What was measured:
Assay type in all cases: cell-based
[1] = test system: human breast cancer cell line T-47D; assay: Caspase cascade activation assay in T-47D cells; settings: T47D, 24 h or 48 h incubation, read-out: Caspase Activation Potency EC50 T-47D
Protocol: (§1) Human breast cancer cell lines T-47D and human lung cancer cell line H1299 were grown according to media component mixtures designated by American Type Culture Collection+10% FCS (Invitrogen Corporation), in a 5% CO2-95% humidity incubator at 37° C. T-47D and H1299 cells were maintained at a cell density between 50 and 80% confluency at a cell density of 0.1 to 0.6×10^6 cells/mL. Cells were harvested at 600×g and resuspended at 0.65×10^6 cells/mL into appropriate media+10% FCS. An aliquot of 22.5 μL of cells was added to a well of a 384-well microtiter plate containing 2.5 μL of a 10% DMSO in RPMI-1640 media solution containing 0.16 to 100 μM of N-(3,4-methylenedioxybenzyl)-6-phenylthieno[3,2-d]pyrimidin-4-amine or other test compound (0.016 to 10 μM final). An aliquot of 22.5 μL of cells was added to a well of a 384-well microtiter plate containing 2.5 μL of a 10% DMSO in RPMI-1640 media solution without test compound as the control sample. The samples were mixed by agitation and then incubated at 37° C. for 24 h or 48 h in a 5% CO2-95% humidity incubator. After incubation, the samples were removed from the incubator and 25 μL of a solution containing 14 μM of N-(Ac-DEVD)-N′-ethoxycarbonyl-R110 (SEQ ID No.:1) fluorogenic substrate (Cytovia, Inc.; WO99/18856), 20% sucrose (Sigma), 20 mM DTT (Sigma), 200 mM NaCl (Sigma), 40 mM Na PIPES buffer pH 7.2 (Sigma), and 500 μg/mL lysolecithin (Calbiochem) was added. The samples were mixed by agitation and incubated at room temperature. Using a fluorescent plate reader (Model SPECTRAfluor Plus, Tecan), an initial reading (T=0) was made approximately 1-2 min after addition of the substrate solution, employing excitation at 485 nm and emission at 530 nm, to determine the background fluorescence of the control sample. After the 3 h incubation, the samples were read for fluorescence as above (T=3 h).
(§2) The Relative Florescence Unit values (RFU) were used to calculate the sample readings as follows: RFU(T=3h)−Control RFU(T=0)=Net RFU(T=3h)
(§3) The activity of caspase cascade activation was determined by the ratio of the net RFU value for N-(3,4-methylenedioxybenzyl)-6-phenylthieno[3,2-d]pyrimidin-4-amine (Example A) or other test compound to that of control samples. The EC50 (nM) was determined by a sigmoidal dose-response calculation (Prism 3.0, GraphPad Software Inc.).

[2] = test system: human lung cancer cell line H1299; assay: Caspase cascade activation assay in H1299 cells; settings: NCI-H1299, 24 h or 48 h incubation, read-out: Caspase Activation Potency EC50 H1299
Protocol: as §1, §2, §3

[3] = test system: human colon carcinoma cell line HCT116; assay: Caspase cascade activation assay in HCT116 cells; settings: HCT-116, 48 h assay, read-out: Caspase Activation Potency EC50 HCT116
[4] = test system: human hepatocellular carcinoma cell line SNU398; assay: Caspase cascade activation assay in SNU398 cells; settings: SNU-398, 48 h assay, read-out: Caspase Activation Potency EC50 SNU398
[5] = test system: human lymphoma cell line Raji; assay: Caspase cascade activation assay in Raji cells; settings: 48 h assay, read-out: Caspase Activation Potency EC50 Raji
[6] = test system: human B cell lymphoblastoid cell line Ramos; assay: Caspase cascade activation assay in Ramos cells; settings: 48 h assay, read-out: Caspase Activation Potency EC50 Ramos
[7] = test system: human Burkitt's lymphoma cell line Namalwa; assay: Caspase cascade activation assay in Namalwa cells; settings: Burkitts lymphoma cell, 48 h assay, read-out: Caspase Activation Potency EC50 Namalwa
[8] = test system: human breast cancer cell line T-47D; assay: Inhibition of cell proliferation (GI50, CellTiter-Glo) in T-47D cells; settings: T47D cells, 48 h, dose for 50% inhibition of cell proliferation
Protocol: (§4) Human breast cancer cell lines T-47D, MX-1 and MDAMB435, human colon cancer cell line HT29, and human lung cancer cell line H1299 were grown and harvested as in Example 26. An aliquot of […] of cells (4.4×10^4 cells/mL) was added to a well of a 96-well microtiter plate containing 5 μL of a 10% DMSO in RPMI-1640 media solution containing 10 nM to 100 μM of N-(3,4-methylenedioxybenzyl)-6-phenylthieno[3,2-d]pyrimidin-4-amine (1 nM to 10 μM final). An aliquot of 45 μL of cells was added to a well of a 96-well microtiter plate containing 5 μL of a 10% DMSO in RPMI-1640 media solution without compound as the control sample for maximal cell proliferation (LMax). The samples were mixed by agitation and then incubated at 37° C. for 48 h in a 5% CO2-95% humidity incubator. After incubation, the samples were removed from the incubator and 25 μL of CellTiter-Glo™ reagent (Promega) was added. The samples were mixed by agitation and incubated at room temperature for 10-15 min. Plates were then read using a luminescent plate reader (Model SPECTRAfluor Plus, Tecan) to give Ltest values.
(§5) Baseline for GI50 (dose for 50% inhibition of cell proliferation) of initial cell numbers was determined by adding an aliquot of 45 μL of cells or 45 μL of media, respectively, to wells of a 96-well microtiter plate containing 5 μL of a 10% DMSO in RPMI-1640 media solution. The samples were mixed by agitation and then incubated at 37° C. for 0.5 h in a 5% CO2-95% humidity incubator. After incubation, the samples were removed from the incubator and 25 μL of CellTiter-Glo™ reagent (Promega) was added. The samples were mixed by agitation and incubated at 37° C. for 10-15 min at room temperature in a 5% CO2-95% humidity incubator. Fluorescence was read as above, (Lstart) defining luminescence for initial cell number used as baseline in GI50 determinations.
(§6) GI50 (dose for 50% inhibition of cell proliferation) is the concentration where [(LTest−Lstart)/(LMax−Lstart)]=0.5.

[9] = test system: human breast cancer cell line MX-1; assay: Inhibition of cell proliferation (GI50, CellTiter-Glo) in MX-1 cells; settings: MX1 cells, 48 h, dose for 50% inhibition of cell proliferation
Protocol: as §4, §5, §6

[10] = test system: human breast cancer cell line MDAMB435; assay: Inhibition of cell proliferation (GI50, CellTiter-Glo) in MDAMB435 cells; settings: MDA-MB-435, 48 h, dose for 50% inhibition of cell proliferation
Protocol: as §4, §5, §6

[11] = test system: human lung cancer cell line H1299; assay: Inhibition of cell proliferation (GI50, CellTiter-Glo) in H1299 cells; settings: NCI-H1299, 48 h, dose for 50% inhibition of cell proliferation
Protocol: as §4, §5, §6

[12] = test system: human colon cancer cell line HT29; assay: Inhibition of cell proliferation (GI50, CellTiter-Glo) in HT29 cells; settings: HT-29, 48 h, dose for 50% inhibition of cell proliferation
Protocol: as §4, §5, §6

**Q.** c1cncc(-c2cc3ncnc(NCc4ccc5c(c4)OCO5)c3s2)c1 [Example 5, N-(3,4-Methylenedioxybenzyl)-6-(pyridin-3-yl)thieno[3,2-d]pyrimidin-4-amine] was tested. Which EC50 [1] did it give?
**A.** The EC50 was 563 nM.

**Q.** What about the EC50 [2] of the same compound?
**A.** Its EC50 is 1600 nM.

**Q.** What about the EC50 [3] of the same compound?
**A.** Its EC50 is 2530 nM.

**Q.** What about the EC50 [4] of the same compound?
**A.** Its EC50 is 1450 nM.

**Q.** And the EC50 [5]?
**A.** Its EC50 is 2760 nM.

**Q.** What about the EC50 [6] of the same compound?
**A.** The EC50 was 1830 nM.

**Q.** What about the EC50 [7] of the same compound?
**A.** The EC50 was 1350 nM.

**Q.** What about the GI50 [8] of the same compound?
**A.** The GI50 was 1290 nM.

**Q.** What about the GI50 [9] of the same compound?
**A.** Its GI50 is 173 nM.

**Q.** What about the GI50 [10] of the same compound?
**A.** Its GI50 is 155 nM.

**Q.** And the GI50 [11]?
**A.** The GI50 was 1810 nM.

**Q.** What about the GI50 [12] of the same compound?
**A.** The GI50 was 5240 nM.

**Q.** c1ccc(-c2cc3ncnc(NCc4ccc5c(c4)OCO5)c3s2)cc1 [Example A, N-(3,4-methylenedioxybenzyl)-6-phenylthieno[3,2-d]pyrimidin-4-amine] was tested. Which EC50 [1] did it give?
**A.** The EC50 was 903 nM.

**Q.** What about the EC50 [2] of the same compound?
**A.** The EC50 was 506 nM.

**Q.** What about the EC50 [3] of the same compound?
**A.** The EC50 was 737 nM.

**Q.** What about the EC50 [4] of the same compound?
**A.** Its EC50 is 738 nM.

**Q.** And the EC50 [5]?
**A.** The EC50 was 1130 nM.

**Q.** What about the EC50 [6] of the same compound?
**A.** The EC50 was 624 nM.

**Q.** What about the EC50 [7] of the same compound?
**A.** The EC50 was 633 nM.

**Q.** And the GI50 [8]?
**A.** The GI50 was 600 nM.

**Q.** What about the GI50 [9] of the same compound?
**A.** The GI50 was 600 nM.

**Q.** What about the GI50 [10] of the same compound?
**A.** Its GI50 is 129 nM.

**Q.** What about the GI50 [11] of the same compound?
**A.** Its GI50 is 600 nM.

**Q.** What about the GI50 [12] of the same compound?
**A.** The GI50 was 600 nM.
